According to article PMC4884932, “Selective brain penetrable Nurr1 transactivator for treating Parkinson's disease” (Oncotarget, 2016):

Experiments:
[1] = system: Nurr1 downstream genes in the SN; assay: Expression of Nurr1 downstream genes in the substantia nigra after oral treatment; assay type: in vivo; conditions: rat, 7 days oral 10 mg/kg/day
Description: Male SD rats underwent daily gavage with 10mg/kg/day for seven days. One hour after the last dose, rats were anesthetized with ketamine/xylazine and transcardially perfused with cold saline. Brains were isolated and homogenized with two volumes of phosphate buffer using ultrasonication. A 100μl sample of the homogenate was transferred to a 1.7ml centrifuge tube and mixed with 20μl of internal standard (100ng/ml of 13-cis retinoic acid-d5 in diluent). Then the sample was deproteinized with 300μl of acetonitrile, centrifuged, and the supernatant was transferred to an autosampler vial for analysis by LC/MS/MS. The calibration standards and the internal standard (13-cis retinoic acid-d5) were diluted in acetonitrile:butylatedhydroxyanisole:ethoxyquin:triethylamine (100:0.05:0.02:0.1, v/w/v/v).
Total RNA from VMB neurons or rat substantia nigra were isolated using the RNeasy Mini Kit from Qiagen (Valencia, CA) and 1μg of total RNA was reverse transcribed using SuperScript III first-strand synthesis supermix for qRT-PCR from Invitrogen (Carlsbad, CA) according to the manufacturer's instruction. Quantitative RT-PCR was performed using Maxima SYBR Green master mix (Fermentas) in ABI Prism 7900HT in four replicates with primers amplifying the target genes. Expression level of actin was used as an internal control. Data were normalized using the 2^−ΔΔCt method. Levels of target gene mRNAs were expressed relative to those in vehicle control groups and plotted in GraphPad Prism.

Nurr1 = biological target: T1, Nurr1 (Homo sapiens, UniProt P43354); assay: Nurr1 transactivation assay in COS7 cells without RXRα; assay type: cell-based; conditions: Nurr1 in the absence of RXRα
T1 construct: full length Nurr1 with or without full-length RXRα plasmid; expressed in transfected cells; host or cells: COS7
T1 sequence (P43354 whole entry, species assumed): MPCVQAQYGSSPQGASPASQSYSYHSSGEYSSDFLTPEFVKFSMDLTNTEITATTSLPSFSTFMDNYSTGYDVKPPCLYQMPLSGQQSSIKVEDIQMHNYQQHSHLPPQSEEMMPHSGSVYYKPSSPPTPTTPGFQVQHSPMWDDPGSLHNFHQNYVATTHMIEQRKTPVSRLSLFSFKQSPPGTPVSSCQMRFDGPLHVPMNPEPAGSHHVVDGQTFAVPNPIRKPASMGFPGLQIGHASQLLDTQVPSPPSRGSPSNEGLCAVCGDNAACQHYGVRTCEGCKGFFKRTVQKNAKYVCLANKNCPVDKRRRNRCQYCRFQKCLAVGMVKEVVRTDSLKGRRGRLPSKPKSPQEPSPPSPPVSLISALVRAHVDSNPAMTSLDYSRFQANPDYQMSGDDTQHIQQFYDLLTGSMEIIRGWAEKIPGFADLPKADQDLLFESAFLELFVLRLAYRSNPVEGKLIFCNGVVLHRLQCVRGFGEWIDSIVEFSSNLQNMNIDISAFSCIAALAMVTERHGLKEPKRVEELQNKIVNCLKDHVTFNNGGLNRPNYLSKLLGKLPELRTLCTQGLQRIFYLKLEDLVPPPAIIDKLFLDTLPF
Description: (§1) For RXR: CV-1 cells were transfected with rCRBPII/RXRE-tk-Luc reporter gene and an expression vector for RXRα, β, or γ. For RAR: CV-1 cells were transfected with ERE-tk-Luc reporter gene and an expression vector for the appropriate ER-RARα, β, or γ. ER-RARs are fusion proteins, composed of the estrogen receptor (ER) DNA binding domain fused to the ligand binding domain of RARs. This system eliminates interference by the low level of endogenous RAR activity in CV1 cells as the readout comes only from the transfected ER-RAR. For PPARγ: CV-1 cells were transfected with 3x(rAOX/DR1)-tk-Luc reporter gene and an expression vector for PPARγ; for FXR: CV-1 cells were transfected with 3x(IBABP/IR1)-tk-Luc reporter gene and vectors for FXR and RXRα; for LXR: CV-1 cells were transfected with 3x(PLTP/LXRE)-tk-Luc reporter gene with vectors for LXRα or LXRβ. For Nurr1: COS7 cells were transfected with 3xNBRE-tk-luc reporter gene and full length Nurr1 with or without full-length RXRα plasmid. […] Luciferase data were normalized to co-transfected β-gal activity. Luciferase activity is expressed as percent of maximal activity obtained using specific agonists 9-cis-retinoic acid (RXR), retinoic acid (RAR), rosiglitazone (PPARγ), GW4064 (FXR), T0901317 (LXR).

6-OHDA lesioned rats = assay: Apomorphine-induced rotations in 6-OHDA lesioned rat model of PD; assay type: in vivo; conditions: 10mg/kg/day gavage for three weeks, day 24 post-lesion
Description: All surgical procedures were performed under general anesthesia with ketamine/xylazine. 2μl 6-OHDA (20 mg/ml in 0.02% ascorbic acid) was stereotaxically injected into the right striatum of male SD rats. Lesion coordinates were set according to bregma and dura in mm: ML-3.7; AP-1.0; DV-5.5. The injection rate was 2μl/5 min and the injecting needle was left for 2 minutes after injection to avoid back flow. Apomorphine-induced rotations (see below) were assessed three days post-lesion and rats with ≥ 30 full contralateral rotation/30 minutes were included in the study.
Rats were randomly grouped into vehicle control group (n = 11) and drug treatment group (n = 10). […] The control group received DMSO/corn oil (vehicle). The treatment continued for three weeks.
Apomorphine (APO)-induced rotations were performed as described by Fisher et al.. Briefly, immediately after apomorphine injection (0.5 mg/kg body weight), animals were placed in an open area. A camera monitored the animal behavior and computerized software analyzed the number of contralateral and ipsilateral rotations in 30 minutes testing. Rotations were assessed three days post-lesion and after three weeks of treatment (24 days post-lesion). Data were expressed as average contralateral turns per minute.

LXRβ = LXRβ (Homo sapiens, UniProt P55055); assay: Receptor transactivation assay, LXRβ (CV-1 cells); assay type: cell-based; conditions: at physiological concentrations
Sequence of LXRβ (P55055 whole entry, one chain of several): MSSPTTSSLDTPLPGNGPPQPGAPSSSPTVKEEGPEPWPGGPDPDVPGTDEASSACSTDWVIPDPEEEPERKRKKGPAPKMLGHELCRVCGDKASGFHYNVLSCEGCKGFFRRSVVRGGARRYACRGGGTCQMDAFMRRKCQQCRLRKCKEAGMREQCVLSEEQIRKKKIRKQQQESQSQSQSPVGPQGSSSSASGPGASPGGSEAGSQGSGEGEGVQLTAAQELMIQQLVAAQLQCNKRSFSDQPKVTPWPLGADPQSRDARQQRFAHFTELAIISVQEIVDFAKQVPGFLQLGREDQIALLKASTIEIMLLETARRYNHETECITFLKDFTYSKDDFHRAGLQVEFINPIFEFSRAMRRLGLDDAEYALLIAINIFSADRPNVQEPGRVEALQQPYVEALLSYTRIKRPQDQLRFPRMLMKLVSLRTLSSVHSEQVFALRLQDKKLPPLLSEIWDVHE
Description: (§2) For PPARγ: CV-1 cells were transfected with 3x(rAOX/DR1)-tk-Luc reporter gene and an expression vector for PPARγ; for FXR: CV-1 cells were transfected with 3x(IBABP/IR1)-tk-Luc reporter gene and vectors for FXR and RXRα; for LXR: CV-1 cells were transfected with 3x(PLTP/LXRE)-tk-Luc reporter gene with vectors for LXRα or LXRβ. […] Luciferase data were normalized to co-transfected β-gal activity. Luciferase activity is expressed as percent of maximal activity obtained using specific agonists 9-cis-retinoic acid (RXR), retinoic acid (RAR), rosiglitazone (PPARγ), GW4064 (FXR), T0901317 (LXR).

RXRα = biological target: T2, RXRα (Homo sapiens, UniProt P19793); assay: Receptor transactivation assay, RXRα (CV-1 cells, rCRBPII/RXRE-tk-Luc reporter); assay type: cell-based; conditions: 20h
T2 sequence (P19793 1-462): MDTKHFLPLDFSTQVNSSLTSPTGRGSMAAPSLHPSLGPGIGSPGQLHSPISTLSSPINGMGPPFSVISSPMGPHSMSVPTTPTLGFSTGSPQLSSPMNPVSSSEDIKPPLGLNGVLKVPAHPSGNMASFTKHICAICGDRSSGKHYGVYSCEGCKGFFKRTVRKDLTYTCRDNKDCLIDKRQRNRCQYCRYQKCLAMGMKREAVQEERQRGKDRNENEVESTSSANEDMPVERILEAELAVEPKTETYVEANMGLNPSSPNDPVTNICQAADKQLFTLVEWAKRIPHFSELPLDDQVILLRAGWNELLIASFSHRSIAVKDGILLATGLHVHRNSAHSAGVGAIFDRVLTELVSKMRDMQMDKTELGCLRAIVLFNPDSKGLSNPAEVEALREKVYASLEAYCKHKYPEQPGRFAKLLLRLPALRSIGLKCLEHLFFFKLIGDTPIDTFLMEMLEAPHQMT
Description: as §1

LXRα = LXRα (Homo sapiens, UniProt Q13133); assay: Receptor transactivation assay, LXRα (CV-1 cells); assay type: cell-based; conditions: at physiological concentrations
Sequence of LXRα (Q13133 whole entry, one chain of several): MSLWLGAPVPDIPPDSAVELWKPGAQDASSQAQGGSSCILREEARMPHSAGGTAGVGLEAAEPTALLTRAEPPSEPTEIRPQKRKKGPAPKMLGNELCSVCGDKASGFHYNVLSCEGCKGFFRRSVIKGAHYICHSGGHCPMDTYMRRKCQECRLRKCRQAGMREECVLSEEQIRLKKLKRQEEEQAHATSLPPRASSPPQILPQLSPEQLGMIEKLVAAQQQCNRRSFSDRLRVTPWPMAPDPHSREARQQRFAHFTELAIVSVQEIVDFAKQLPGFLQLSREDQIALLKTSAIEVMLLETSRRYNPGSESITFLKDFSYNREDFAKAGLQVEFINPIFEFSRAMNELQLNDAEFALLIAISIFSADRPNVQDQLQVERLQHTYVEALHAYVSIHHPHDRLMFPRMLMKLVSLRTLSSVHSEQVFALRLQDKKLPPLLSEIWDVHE
Description: as §2

With CC(/C=C/[C@@H]1C[C@]1(C)c1ccc2c(c1)C(C)(C)CCC2(C)C)=C\C(=O)O [IRX4204] the “DAT mRNA level in the SN” value [1] was “significantly increased”, the “DDC mRNA level in the SN” value [1] was “significantly increased” and the “DJ-1(PARK7) mRNA level in the SN” value [1] was “significantly increased”. The “GRFα1 mRNA level in the SN” value [1] was “significantly increased”, the “Pitx3 mRNA level in the SN” value [1] was “significantly increased” and the “TH mRNA level in the SN” value [1] was “significantly increased”. The “VMAT-2 (VMAT2) mRNA expression in the SN” value ([1]; did not reach statistical significance) was “trend towards an increase”, the reporter gene activation (Nurr1) was “base level of reporter gene activation” and the “APO-induced contralateral rotations versus baseline” value (6-OHDA lesioned rats) was “did not differ significantly from baseline”. For the same compound, the “activation of RXR heterodimer of LXRβ” value (LXRβ) was “does not activate”, the “concentration that fully activates RXRα” value (RXRα) was 1 nM and the “concentration that partially activates RXRα” value (RXRα) was 0.1 nM. For the same compound, the “activation of RXR heterodimer of LXRα” value (LXRα) was “does not activate”.
